Data set [1] relates to tau and PP2A-B. Description: Co-immunoprecipitation of DEPTAC with tau and PP2A-B in primary neurons. It is filed as cell-based. Particulars: primary cultured rat neurons. Here is the method:
Primary hippocampal neurons were prepared from E12–E15 days SD rat embryos. Briefly, pregnant rats were acutely executed, hippocampus was dissected on ice and gently minced in DME/F12 (Hyclone) then suspended in 0.125% (vol/vol) trypsin solution at 37 °C for 20 min. Enzymatic activity was stopped by fetal bovine serum. Neurons were initially kept in 10% FBS-containing DME/F12 for 4–6 h, and subsequently cultured in Neurobasal (Hyclone) with 2% B27, 1% glutamax and 1% penicillin–streptomycin (Thermo Fisher Scientific) in dishes pre-coated with 100 μg/mL poly-D-lysine. Serum was gradually removed by replacing half of the medium for each time within the following 2 days. Especially, to inhibit the proteasome-dependent proteolysis, the cultured hippocampal neurons were treated with 5 μM MG132 for 5 h before harvest.
For co-immunoprecipitation, cultured cells were lysed on ice with RIPA buffer for 10 min containing 1:100 PMSF. Protein samples were incubated with protein G agarose (Beyotime) at 4 °C for 2 h, and then centrifuged for 5 min (4 °C, 12,000 rpm). Supernatants were subsequently incubated with specified antibodies and protein G agarose overnight at 4 °C. […] Immunoprecipitants were subsequently analyzed through Western blotting.

Data set [2] has as its system Tau368 mice. Description: Object-place recognition test. It is filed as in vivo, mouse. Here is the method:
Mice were repeatedly handled during DEPTAC administration before behavioral tests. For object-place recognition in the […], mice were placed in a box (50 × 50 × 50 cm) marked with a visual cue on the wall, and two identical objects (plastic toys) were placed at the two different corners. Each mouse was allowed to freely explore for 5 min, and then removed from the box for 2 min, during which the box and the objects were cleaned with 75% ethanol. Pseudorandomly, one of the two objects (object B) was moved to a new corner while the other object (object A) remained unmoved. In the test phase, mice were allowed to freely explore in the box for another 5 min. Videos were recorded and analyzed online using an ANY-maze video tracking system (Stoelting). The time mice stayed around each object was counted as exploring; and the preference ratio was calculated as the exploring time (B − A) / (B + A).

Entries after “also recorded” stand apart in the source; their conditions may differ.

Regarding “(1) YQQYQDATADEQG, originates from the porcine β-tubulin 422–434 for recognizing and binding tau proteins.[5],[6] (2) GSGS, a linker for increasing the flexibility of the peptide.[15] (3) KKVAVVRTPPKSP, for recruiting PP2A-Bα,[16] and (4) RRRRRRRR [DEPTAC, DEPhosphorylation TArgeting Chimera; 38 amino acid residues, C185H314N72O56]”, in data set [1] (6–24 h of post-DEPTAC treatment), the “total tau level over time” value was “time-dependent decrease; also recorded: gradual decrease”. In addition, in data set [1] (DEPTAC antibody, 24 h / 12 h (b9)), the “co-immunoprecipitation of DEPTAC with tau and PP2A-B” value is listed as “detected; also recorded: confirmed”. Moreover, in data set [2] (Tau368 mice treated with NW), the “object-place recognition in control mice” value is recorded as “only limitedly affected”. Also, the object-place recognition impairment result in data set [2] (dox-treated Tau368 mice, 1-month DEPTAC after stopping dox, *p < 0.05, n = 10–15 mice) is on record as “remarkably ameliorated; also recorded: rescued”.
